Experimental data published in US8877707B2, “Inhibitors of HCV NS5A” (Presidio Pharmaceuticals, Inc., priority 2010, dated 2014).

Each compound was assayed on HCV genotype 1b replicon in Huh 7 cells (assay: HCV replicon assay (1b_Huh-Luc/Neo-ET cell line, luciferase readout)). Conditions: Hepatitis C virus; Table 1; genotype 1b replicon, Huh 7 cells, 72 h, luciferase; read-out: Inhibition of HCV genotype 1b.
Type: cell-based
Outline: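 Huh 7 cells carrying a bicistronic genotype 1b luciferase replicon were treated with compound in triplicate the day after plating and incubated 72 h. Luciferase activity expressed as % of untreated control; EC50 from a four-parameter logistic fit, repeated several times.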

**Q.** `COC(=O)N[C@H](C(=O)N1CCC[C@H]1c1ncc(-c2ccc(-c3nc4ccc(-c5cnc([C@@H]6CCCN6C(=O)[C@@H](NC(=O)OC)C(C)C)[nH]5)cc4o3)cc2)[nH]1)C(C)C` [compound 234] was tested. Which EC50 did it give?
**A.** < 1 nM

**Q.** How did the EC50 turn out when `COC(=O)N[C@@H](C(=O)N1CCC[C@H]1c1ncc(-c2ccc(-c3nc4ccc(-c5cnc([C@@H]6CCCN6C(=O)[C@H](NC(=O)OC)c6ccccc6)[nH]5)cc4o3)cc2)[nH]1)c1ccccc1` [compound 235] was run?
**A.** < 1 nM

**Q.** `COC(=O)N[C@H](C(=O)N1CCC[C@H]1c1ncc(-c2ccc(-c3nc4cc(-c5cnc([C@@H]6CCCN6C(=O)[C@@H](NC(=O)OC)C(C)C)[nH]5)ccc4o3)cc2)[nH]1)C(C)C` [compound 236] was tested. Which EC50 did it give?
**A.** < 1 nM

**Q.** `COC(=O)N[C@@H](C(=O)N1CCC[C@H]1c1ncc(-c2ccc(-c3nc4cc(-c5cnc([C@@H]6CCCN6C(=O)[C@H](NC(=O)OC)c6ccccc6)[nH]5)ccc4o3)cc2)[nH]1)c1ccccc1` [compound 237] was tested. Which EC50 did it give?
**A.** < 1 nM

**Q.** `COC(=O)N[C@H](C(=O)N1CCC[C@H]1c1ncc(-c2ccc(-c3nc4cc(-c5cnc([C@@H]6CCCN6C(=O)[C@@H](NC(=O)OC)[C@@H](C)OC)[nH]5)ccc4o3)cc2)[nH]1)[C@@H](C)OC` [compound 238] was tested. Which EC50 did it give?
**A.** < 1 nM

**Q.** `COC(=O)N[C@H](C(=O)N1CCC[C@H]1c1ncc(-c2ccc(-c3nc4cc(-c5cnc([C@@H]6CCCN6C(=O)[C@@H](NC(=O)OC)C6CC6)[nH]5)ccc4o3)cc2)[nH]1)C1CC1` [compound 239] was tested. Which EC50 did it give?
**A.** < 1 nM

**Q.** For `COC(=O)N[C@H](C(=O)N1CCC[C@H]1c1ncc(-c2ccc(-c3nc4cc(-c5cnc([C@@H]6CCCN6C(=O)[C@@H](NC(=O)OC)C(C)C)[nH]5)ccc4s3)cc2)[nH]1)C(C)C` [compound 240], which EC50 is on record?
**A.** < 1 nM

**Q.** For `COC(=O)N[C@H](C(=O)N1CCC[C@H]1c1ncc(-c2ccc(-c3nc4ccc(-c5cnc([C@@H]6CCCN6C(=O)[C@H](NC(=O)OC)c6ccccc6)[nH]5)cc4s3)cc2)[nH]1)C(C)C` [compound 241], which EC50 is on record?
**A.** < 1 nM

**Q.** For `COC(=O)N[C@H](C(=O)N1CCC[C@H]1c1ncc(-c2ccc(-c3nc4ccc(-c5cnc([C@@H]6CCCN6C(=O)[C@H](NC(=O)OC(C)(C)C)c6ccccc6)[nH]5)cc4s3)cc2)[nH]1)C(C)C` [compound 242], which EC50 is on record?
**A.** < 1 nM

**Q.** `COC(=O)N[C@H](C(=O)N1CCCC[C@H]1c1ncc(-c2ccc(-c3nc4ccc(-c5cnc([C@@H]6CCCCN6C(=O)[C@@H](NC(=O)OC)C(C)C)[nH]5)cc4s3)cc2)[nH]1)C(C)C` [compound 243] was tested. Which EC50 did it give?
**A.** < 1 nM

**Q.** With `CCNC(=O)N[C@@H](C(=O)N1CCC[C@H]1c1ncc(-c2ccc3nc(-c4ccc(-c5cnc([C@@H]6CCCN6C(=O)[C@@H](NC(=O)OC)C(C)C)[nH]5)cc4)sc3c2)[nH]1)c1ccccc1` [compound 244] as the compound, how does the EC50 read?
**A.** < 1 nM

**Q.** For `CNC(=O)N[C@@H](C(=O)N1CCC[C@H]1c1ncc(-c2ccc3nc(-c4ccc(-c5cnc([C@@H]6CCCN6C(=O)[C@@H](NC(=O)OC)C(C)C)[nH]5)cc4)sc3c2)[nH]1)c1ccccc1` [compound 245], which EC50 is on record?
**A.** < 1 nM

**Q.** `COC(=O)N[C@H](C(=O)N1CCC[C@H]1c1ncc(-c2ccc(-c3nc4ccc(-c5cnc([C@@H]6CCCN6C(=O)OCc6ccccc6)[nH]5)cc4s3)cc2)[nH]1)C(C)C` [compound 246] was tested. Which EC50 did it give?
**A.** < 1 nM

**Q.** For `COC(=O)N[C@H](C(=O)N1CCC[C@H]1c1ncc(-c2ccc(-c3nc4ccc(-c5cnc([C@@H]6CCCN6C(=O)[C@H](NC(=O)OC(C)(C)C)c6ccccc6)[nH]5)cc4o3)cc2)[nH]1)C(C)C` [compound 247], which EC50 is on record?
**A.** < 1 nM

**Q.** Which EC50 does the source give for `COC(=O)N[C@@H](C(=O)N1CCCC[C@H]1c1ncc(-c2ccc(-c3nc4ccc(-c5cnc([C@@H]6CCCCN6C(=O)[C@H](NC(=O)OC)c6ccccc6)[nH]5)cc4s3)cc2)[nH]1)c1ccccc1` [compound 248] here?
**A.** < 1 nM

**Q.** For `COC(=O)N[C@H](C(=O)N1CCC[C@H]1c1ncc(-c2ccc(-c3nc4ccc(-c5cnc([C@@H]6CCCN6C(=O)[C@H](NC(=O)OC)c6ccccc6)[nH]5)cc4o3)cc2)[nH]1)C(C)C` [compound 249], which EC50 is on record?
**A.** < 1 nM

**Q.** Which EC50 does the source give for `CC(C)(C)OC(=O)N1CCCC1c1ncc(-c2ccc(-c3nc4cc(-c5cnc([C@@H]6CCCN6C(=O)OCc6ccccc6)[nH]5)ccc4s3)cc2)[nH]1` (stereo partly drawn) [compound 250] here?
**A.** 10 to 999 nM

**Q.** `CNC(=O)N[C@@H](C(=O)N1CCC[C@H]1c1ncc(-c2ccc3nc(-c4ccc(-c5cnc([C@@H]6CCCN6C(=O)[C@@H](NC(=O)OC)C(C)C)[nH]5)cc4)oc3c2)[nH]1)c1ccccc1` [compound 251] was tested. Which EC50 did it give?
**A.** < 1 nM

**Q.** With `CCNC(=O)N[C@@H](C(=O)N1CCC[C@H]1c1ncc(-c2ccc3nc(-c4ccc(-c5cnc([C@@H]6CCCN6C(=O)[C@@H](NC(=O)OC)C(C)C)[nH]5)cc4)oc3c2)[nH]1)c1ccccc1` [compound 252] as the compound, how does the EC50 read?
**A.** < 1 nM

**Q.** `COC(=O)N[C@H](C(=O)N1CCC[C@H]1c1ncc(-c2ccc(-c3nc4ccc(-c5cnc([C@@H]6CCCN6C(=O)[C@@H](NC(=O)OC)[C@@H](C)OC)[nH]5)cc4o3)cc2)[nH]1)C(C)C` [compound 253] was tested. Which EC50 did it give?
**A.** < 1 nM

**Q.** Which EC50 does the source give for `COC(=O)N[C@H](C(=O)N1CCC[C@H]1c1ncc(-c2ccc3nc(-c4ccc(-c5cnc([C@@H]6CCCN6C(=O)[C@H](NC(=O)OC(C)(C)C)c6ccccc6)[nH]5)cc4)oc3c2)[nH]1)C(C)C` [compound 254] here?
**A.** < 1 nM

**Q.** For `COC(=O)N[C@H](C(=O)N1CCC[C@H]1c1ncc(-c2ccc3nc(-c4ccc(-c5cnc([C@@H]6CCCN6C(=O)[C@H](NC(=O)OC)c6ccccc6)[nH]5)cc4)oc3c2)[nH]1)C(C)C` [compound 255], which EC50 is on record?
**A.** < 1 nM

**Q.** With `CNC(=O)N[C@@H](C(=O)N1CCC[C@H]1c1ncc(-c2ccc(-c3nc4ccc(-c5cnc([C@@H]6CCCN6C(=O)[C@@H](NC(=O)OC)C(C)C)[nH]5)cc4o3)cc2)[nH]1)c1ccccc1` [compound 256] as the compound, how does the EC50 read?
**A.** < 1 nM

**Q.** Which EC50 does the source give for `CCNC(=O)N[C@@H](C(=O)N1CCC[C@H]1c1ncc(-c2ccc(-c3nc4ccc(-c5cnc([C@@H]6CCCN6C(=O)[C@@H](NC(=O)OC)C(C)C)[nH]5)cc4o3)cc2)[nH]1)c1ccccc1` [compound 257] here?
**A.** < 1 nM

**Q.** `COC(=O)N[C@H](C(=O)N1CCC[C@H]1c1ncc(-c2ccc(-c3ccc4nc(-c5cnc([C@@H]6CCCN6C(=O)[C@@H](NC(=O)OC)C(C)C)[nH]5)sc4c3)cc2)[nH]1)C(C)C` [compound 258] was tested. Which EC50 did it give?
**A.** < 1 nM

**Q.** For `COC(=O)N[C@H](C(=O)N1CCC[C@H]1c1ncc(-c2ccc3oc(-c4ccc(-c5cnc([C@@H]6CCCN6C(=O)[C@@H](NC(=O)OC)C6CCOCC6)[nH]5)cc4)nc3c2)[nH]1)C(C)C` [compound 259], which EC50 is on record?
**A.** < 1 nM

**Q.** How did the EC50 turn out when `COC(=O)N[C@H](C(=O)N1CCC[C@H]1c1ncc(-c2ccc3oc(-c4ccc(-c5cnc([C@@H]6CCCN6C(=O)[C@H](NC(=O)OC)c6ccccc6)[nH]5)cc4)nc3c2)[nH]1)C(C)C` [compound 260] was run?
**A.** < 1 nM

**Q.** For `COC(=O)N[C@H](C(=O)N1CCC[C@H]1c1ncc(-c2ccc3ccc(C45CCC(c6cnc([C@@H]7CCCN7C(=O)[C@@H](NC(=O)OC)C(C)C)[nH]6)(CC4)CC5)cc3c2)[nH]1)C(C)C` [compound 261], which EC50 is on record?
**A.** 1 to 9.9 nM

**Q.** How did the EC50 turn out when `COC(=O)N[C@H](C(=O)N1CCC[C@H]1c1nc(-c2ccc3nc(C45CCC(c6cnc([C@@H]7CCCN7C(=O)[C@@H](NC(=O)OC)C(C)C)[nH]6)(CC4)CC5)ccc3c2)c[nH]1)C(C)C` [compound 262] was run?
**A.** < 1 nM

**Q.** Which EC50 does the source give for `COC(=O)N[C@@H](C(=O)N1CCC[C@H]1c1nc(-c2ccc3nc(C45CCC(c6cnc([C@@H]7CCCN7C(=O)[C@H](NC(=O)OC)c7ccccc7)[nH]6)(CC4)CC5)ccc3c2)c[nH]1)c1ccccc1` [compound 263] here?
**A.** < 1 nM
